Test results from US20230044787A1, “TRICYCLE DIHYDROIMIDAZOPYRIMIDONE DERIVATIVE, PREPARATION METHOD THEREOF, PHARMACEUTICAL COMPOSITION AND USE THEREOF” (priority 2019, published 2023).

The compounds below were run against T1, Lp-PLA2 (Homo sapiens, UniProt Q13093) (assay: Lipoprotein-associated phospholipase A2 (Lp-PLA2) human plasma assay (Thio-PAF assay)). Settings: Lp-PLA2 human plasma assay (Thio-PAF), pooled human plasma, 30-min pre-incubation at room temperature.
T1 construct: aliquoted and thawed 40 μL of pooled human plasma was previously added; from tissue; host or cells: pooled human plasma
T1 sequence (Q13093 22-441): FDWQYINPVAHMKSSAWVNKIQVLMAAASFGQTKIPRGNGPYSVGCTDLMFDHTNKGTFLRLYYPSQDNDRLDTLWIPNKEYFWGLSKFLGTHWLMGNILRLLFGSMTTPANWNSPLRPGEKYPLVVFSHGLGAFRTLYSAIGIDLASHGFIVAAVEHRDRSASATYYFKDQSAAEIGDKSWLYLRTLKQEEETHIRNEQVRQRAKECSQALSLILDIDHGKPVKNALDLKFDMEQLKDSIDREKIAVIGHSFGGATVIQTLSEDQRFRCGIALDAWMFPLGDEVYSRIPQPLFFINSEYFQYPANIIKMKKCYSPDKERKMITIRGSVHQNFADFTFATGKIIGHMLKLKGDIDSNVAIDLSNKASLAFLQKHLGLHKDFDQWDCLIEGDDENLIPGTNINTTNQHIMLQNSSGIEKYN
Format: biochemical

Row | IC50 [nM] | Compound
1 | 8.7 | CCC12CCCN1c1cc(OCc3cc(F)c(Oc4ccnc(C(F)(F)F)c4)c(F)c3)nc(=O)n1C2 (stereo not drawn) [Example 63, 3-((3,5-difluoro-4-((2-(trifluoromethyl)pyridin-4-yl)oxy)benzyl)oxy)-8a-ethyl-7,8,8a,9-tetrahydro-1H,6H-pyrrolo[1′,2′:3,4]imidazo [1,2-c]pyrimidin-1-one]
2 | 4.7 | O=c1nc(OCc2ccc(Oc3ccnc(C(F)(F)F)c3)cc2F)cc2n1C[C@]13CO[C@H](CN21)C3 [Example 96, (3S,11aR)-7-((2-difluoro-4-((2-(trifluoromethyl)pyridin-4-yl)oxy)benzyl)oxy)-3,4-dihydro-1H,9H,11H-3,11a-methanopyrimido[6′1′:2,3] imidazo[5,1-c][1,4]oxazin-9-one]
3 | 9.6 | O=c1nc(OCc2cc(F)c(Oc3ccnc(C(F)(F)F)c3)c(F)c2)cc2n1CC13CC(CN21)C3 [Example 36, 3-((3,5-difluoro-4-((2-(trifluoromethyl)pyridin-4-yl)oxy)benzyl)oxy)-7,8-dihydro-1H,6H,9H-7,8a-methanopyrrolo[1′,2′:3,4] imidazo[1,2-c]pyrimidin-1-one]
4 | 2.2 | O=c1nc(OCc2ccc(Oc3ccnc(C(F)(F)F)c3)c(F)c2)cc2n1C[C@@]13C[C@@H](CN21)N(C1COC1)C3 [Example 172]
5 | 8.6 | O=c1nc(OCc2ccc(Oc3ccc(C(F)(F)F)nc3)c(F)c2)cc2n1CC13CCC(CC1)N23 [Example 121, 3-((3-fluoro-4-((6-(trifluoromethyl)pyridin-3-yl)oxy)benzyl)oxy)-7,8-dihydro-1H,6H,9H-6,8a-ethanopyrrolo[1′,2′:3,4] imidazo[1,2-c]pyrimidin-1-one]
6 | 3.1 | O=c1nc(OCc2ccc(Oc3ccnc(C(F)(F)F)c3)c(F)c2)cc2n1CC13CC(CCN21)C3 [Example 165, 3-((3-fluoro-4-((2-(trifluoromethyl)pyridin-4-yl)oxy)benzyl)oxy)-6,7,8,9-tetrahydro-1H,10H-8,9a-methano-pyrido[1′,2′:3,4] imidazo[1,2-c]pyrimidin-1-one]
7 | 4.4 | O=c1nc(OCc2cc(F)c(Oc3ccnc(C(F)(F)F)c3)c(F)c2)cc2n1C[C@]13CC[C@H](CN21)C3 [Example 123]
8 | 13.8 | O=c1nc(OCc2cc(F)c(Oc3cnc(C(F)(F)F)nc3)c(F)c2)cc2n1CC13CC(CN21)C3 [Example 39, 3-((3,5-difluoro-4-((2-(trifluoromethyl)pyrimidin-5-yl)oxy)benzyl)oxy)-7,8-dihydro-1H,6H,9H-7,8a-methanopyrrolo[1′,2′:3,4] imidazo[1,2-c]pyrimidin-1-one]
9 | 5 | CC12COCCN1c1cc(OCc3cc(F)c(Oc4ccnc(C(F)(F)F)c4)c(F)c3)nc(=O)n1C2 (stereo not drawn) [Example 78, 7-((3,5-difluoro-4-((2-(trifluoromethyl)pyridin-4-yl)oxy)benzyl)oxy)-11a-methyl-3,4,11,11a-tetrahydro-1H,9H-pyrimido[6′,1′:2,3]imidazo [5,1-c][1,4]oxazin-9-one]
10 | 8.7 | Cc1cc(Oc2ccc(COc3cc4n(c(=O)n3)CC35CCC(CC3)N45)cc2F)ccn1 [Example 120, 3-((3-fluoro-4-((2-methyl-pyridin-4-yl)oxy)benzyl)oxy)-7,8-dihydro-1H,6H,9H-6,8a-ethanopyrrolo[1′,2′:3,4] imidazo[1,2-c]pyrimidin-1-one]
11 | 204 | CC12CCCN1c1cc(OCc3ccc(Oc4ccc(F)c(C(F)(F)F)c4)nc3)nc(=O)n1C2 (stereo not drawn) [Example 58, 3-((6-(4-fluoro-3-(trifluoromethyl)phenoxy)pyridin-3-yl)methoxy)-8a-methyl-7,8,8a,9-tetrahydro-1H,6H-pyrrolo[1′,2′:3,4]imidazo [1,2-c]pyrimidin-1-one]
12 | 10.4 | O=c1nc(OCc2ccc(F)c(F)c2)cc2n1C[C@]13CO[C@H](CN21)C3 [Example 25, (3S,11aR)-7-((3,4-trifluorobenzyl)oxy)-3,4-dihydro-1H,9H,11H-3,11a-methanopyrimido[6′,1′:2,3] imidazo[5,1-c][1,4]oxazin-9-one]
13 | 15.3 | O=c1nc(OCc2cc(F)c(Oc3ccnc(C(F)(F)F)c3)c(F)c2)cc2n1CC13CCC(CC1)N23 [Example 46, 3-((3,5-difluoro-4-((2-(trifluoromethyl)pyridin-4-yl)oxy)benzyl)oxy)-7,8-dihydro-1H,6H,9H-6,8a-ethanopyrrolo[1′,2′:3,4] imidazo[1,2-c]pyrimidin-1-one]
14 | 5.8 | O=c1nc(OCc2cc(F)c(Oc3ccnc(OC(F)(F)F)c3)c(F)c2)cc2n1CC13CC(CN21)C3 [Example 37, 3-((3,5-difluoro-4-((2-(trifluoromethoxy)pyridin-4-yl)oxy)benzyl)oxy)-7,8-dihydro-1H,6H,9H-7,8a-methanopyrrolo[1′,2′:3,4] imidazo[1,2-c]pyrimidin-1-one]
15 | 3.6 | N#Cc1cc(COc2cc3n(c(=O)n2)C[C@@]24CO[C@@H](CN32)C4)ccc1Oc1ccc(C(F)(F)F)cc1 [Example 34, 5-((((3R,11aS)-9-oxo-3,4-dihydro-1H,9H,11H-3,11a-methanopyrimido[6′,1′:2,3]imidazo[5,1-c][1,4]oxazin-7-yl)oxy)methyl)-2-(4-(trifluoromethyl)phenoxy) benzonitrile]
16 | 6.9 | CC12CCCCN1c1cc(OCc3ccc(Oc4ccc(Cl)c(C(F)(F)F)c4)c(C#N)c3)nc(=O)n1C2 (stereo not drawn) [Example 70, 2-(4-chloro-3-(trifluoromethyl)phenoxy)-5-(((-9a-methyl-1-oxo-6,7,8,9,9a,10-hexahydro-1H-pyrido[1′,2′:3,4]imidazo [1,2-c]pyrimidin-3-yl)oxy)methyl)benzonitrile]
17 | 4.4 | N#CC12CN3c4cc(OCc5ccc(Oc6ccnc(C(F)(F)F)c6)c(F)c5)nc(=O)n4CC3(C1)C2 [Example 200, 3-((3-fluoro-4-((2-(trifluoromethyl)pyridin-4-yl)oxy)benzyl)oxy)-1-oxo-1H,6H,9H-7,8a-methanopyrrolo[1′,2′:3,4]imidazo[1,2-c] pyrimidine-7(8H)-carbonitrile]
18 | 4.4 | CC(C)(O)C12CN3c4cc(OCc5ccc(Oc6ccnc(C(F)(F)F)c6)c(F)c5)nc(=O)n4CC3(C1)C2 [Example 201, 3-((3-Fluoro-4-((2-trifluoromethylpyridin-4-yl)oxy)benzyl)oxy)-7-(2-hydroxypropyl-2-yl)-7,8-dihydro-1H,6H,9H-7,8a-methanopyrrolo[1′, 2′:3, 4]imidazo[1,2-c]pyrimidin-1-one]
19 | 5.6 | O=c1nc(OCCc2cc(F)c(Oc3ccnc(C(F)(F)F)c3)c(F)c2)cc2n1C[C@]13CO[C@H](CN21)C3 [Example 99, (3S,11aR)-7-(3,5-difluoro-4-((2-(trifluoromethyl)pyridin-4-yl)oxy)phenethoxy)-3,4-dihydro-1H,9H,11H-3,11a-methanopyrimido[6′-,1′:2,3] imidazo[5,1-c][1,4]oxazin-9-one]
20 | 8.6 | COc1c(OCCc2cc(F)c(Oc3ccnc(C(F)(F)F)c3)c(F)c2)nc(=O)n2c1N1CC3CC1(C3)C2 [Example 189, 3-(3,5-difluoro-4-((2-(trifluoromethyl)pyridin-4-yl)oxy)phenethoxy)-4-methoxy-7,8-dihydro-1H,6H,9H-7,8a-methanopyrrolo[1′,2′:3,4] imidazo[1,2-c] pyrimidin-1-one]
21 | 5.2 | COc1c(OCc2ccc(F)c(F)c2)nc(=O)n2c1N1C[C@@H]3C[C@]1(CO3)C2 [Example 115, (3S,11aR)-7-((3,4-difluorobenzyl)oxy)-6-methoxy-3,4-dihydro-1H,9H,11H-3,11a-methanopyrimido[6′,1′:2,3] imidazo[5,1-c][1,4]oxazin-9-one]
22 | 6.7 | O=c1nc(OCCc2ccc(Oc3cccc(C(F)(F)F)c3)c(F)c2)cc2n1C[C@]13CO[C@H](CN21)C3 [Example 181, (3S,11aR)-7-(3-fluoro-4-(3-(trifluoromethyl)phenoxy)phenethoxy)-3,4-dihydro-1H,9H, 11H-3,11a-methanopyrimido[6′,1′:2,3]imidazo [5,1-c][1,4]oxazin-9-one]
23 | 32.4 | O=c1nc(OCc2ccc(Oc3ccc(F)c(C(F)(F)F)c3)nc2)cc2n1C[C@]13CO[C@H](CN21)C3 [Example 17, (3S,11aR)-7-((6-(4-fluoro-3-(trifluoromethyl)phenoxy)pyridin-3-yl)methoxy)-3,4-dihydro-1H,9H,11H-3,11a-methanopyrimido[6′,1′:2,3] imidazo[5,1-c][1,4]oxazin-9-one]
24 | 164 | O=c1nc(OCc2ccc(Oc3ccc(F)c(C(F)(F)F)c3)nc2)cc2n1C[C@@]13CO[C@@H](CN21)C3 [Example 32, (3R,11aS)-7-((6-(4-fluoro-3-(trifluoromethyl)phenoxy)pyridin-3-yl)methoxy)-3,4-dihydro-1H,9H,11H-3,11a-methanopyrimido[6′,1′:2,3] imidazo[5,1-c][1,4]oxazin-9-one]
25 | 4.4 | O=c1nc(OCc2cc(F)c(Oc3ccnc(C(F)(F)F)c3)c(F)c2)cc2n1C[C@]13CO[C@H](CN21)C3 [Example 1]
26 | 2.9 | Cn1ccc(CN2C(=O)[C@]34C[C@H]2CN3c2cc(OCc3ccc(Oc5ccnc(C(F)(F)F)c5)c(F)c3)nc(=O)n2C4)n1 [Example 197, (3S,11aR)-7-((3-fluoro-4-((2-(trifluoromethyl)pyridin-4-yl)oxy)benzyl)oxy)-2-((1-methyl-1H-pyrazol-3-yl)methyl)-3,4-dihydro-9H, 11H-3,11a-methanopyrazino[1′2′:3,4]imidazo [1,2-c]pyrimidin-1,9(2H)-dione]
27 | 2.6 | N#Cc1cc(COc2cc3n(c(=O)n2)CC24CCC(CC2)N34)ccc1Oc1cccc(C(F)(F)F)c1 [Example 2, 5-(((1-Oxo-7,8-dihydro-1H,6H,9H-6,8a-ethanopyrrolo[1′,2′:3,4]imidazo[1,2-c]pyrimidin-3-yl)oxy)methyl)-2-(3-(trifluoromethyl)phenoxy)benzonitrile]
